Reference: BindingDB's records for doi:10.1016/s0960-894x(00)00485-6 (Axys Pharmaceuticals, 2001)

Assay: Dissociation constant of compound was evaluated from its IC50 against tryptase at different concentrations

NC(N)=Nc1ccc(CNC(=O)N2CCN(C(=O)O[C@@H]3CO[C@H]4[C@@H]3OC[C@H]4OC(=O)N3CCN(C(=O)NCc4ccc(N=C(N)N)cc4)CC3)CC2)cc1 [Derivative of APC-2059]
Kd: 0.1 nM
